# Assay results from patent publication US4769369A, “Anti-allergy 1(2H)-phthalazinones” (Pennwalt Corporation, priority 1986, dated 1988).
# pIC50: −log10 of the molar value. Counter-ions that a name gives are not always drawn.
# Tests used:
# [1] = test system: serotonin; assay: Rat Allergic Mediator Induced Dermal Vascular Permeability Test, serotonin challenge; type: in vivo
# Protocol: (§1) Ten minutes later, the animals are challenged by intradermally injecting 0.1 ml of a water solution of either serotonin (1 μg/ml), histamine (20 μg/ml) or bradykinin (10 μg/ml) into separate sites on the back. Five minutes following challenge the animals are killed, the skin retracted, and the mean diameter of the blue wheal and flare reaction is calculated as the difference in mean diameter between a saline control and the drug treated group, divided by the control diameter, and then multiplied times 100. Statistical analysis of the data is done using a Student T-test program. See Tables 4 (ip administration of test compound) and 5 (po administration of test compound) for results obtained with the rat allergic mediator induced dermal vascular permeability test. (Set: Serotonin; His: histamine; Bk: bradykinin)
# [2] = test system: bradykinin; assay: Rat Allergic Mediator Induced Dermal Vascular Permeability Test, bradykinin challenge; type: in vivo
# Protocol: as §1
# [3] = test system: LTC4 induced contractions of the guinea pig ileum; assay: Guinea Pig Ileum Test: inhibition of LTC4-induced guinea pig smooth muscle contractions; type: cell-based; details: Cavia porcellus, 6 nanomoles LTC4
# Protocol: Four replicate, small pieces of guinea pig ileum were suspended in Kreb's physiological salt solution in a 10 ml tissue bath to a gram tension of approximately 1.0. These pieces of tissue were then chemically stimulated with 6 microliters of purified leukotriene C4 (LTC4) yielding a final concentration in the bath of 6 nanomoles. Responses (tissue contraction) were measured isometrically using a Harvard transducer and a Beckman recorder. Upon addition of the LTC4, the tissue was allowed to sit for approximately 15-30 minutes to reach maximal stimulation. The test compound dissolved in a maximum volume of 100 microliters of either saline, dimethylsulfoxide or ethanol was then added to the tissue preparation and the change in gram tension was recorded.
# [4] = test system: Active Anaphylaxis Response in Male, Sprague Dawley Rats; assay: Rat Anaphylaxis Test (active anaphylaxis, paw edema); type: in vivo; details: for Paw Volume Mean ± S.E.: in mmHg (unit assumed)
# Protocol: In the rat anaphylaxis test, groups consisting of 15-20 rats are intraperitoneally sensitized on day zero with 500 μg of bovine serum albumin-absorbed alum admixed with 2×10^10 killed Bordatella pertussis vaccine organisms. Fourteen days later, the test compound suspended in 0.5 to 1.0 ml of 1% Cleargel or saline (0.85% NaCl in H2 O) is administered ip or po and, one hour later, the right hind paw is injected subcutaneously with 100 μg of bovine serum albumin dissolved in 0.1 ml of saline. The paw volume is measured using a mercury plethysmometer prior to drug administration and 90 minutes post antigenic challenge. The present inhibition of edema is calculated as the difference in volume between the control and drug treated groups, divided by the control volume, and then multiplied times 100. The positive control drug, theophylline (90 mg/kg, po) is included in each assay. Statistical analysis of the data is done using an analysis of variance program. See Tables 2 and 3 for results obtained with this test.
# In Tables 2 and 3, and elsewhere in this application, PR 948-257C stands for trans-6-[2-(4-methoxyphenyl)ethenyl]-2-[3-(dimethylamino)propyl]-phthalazin-1(2H)-one hydrobromide.
# [5] = test system: histamine; assay: Rat Allergic Mediator Induced Dermal Vascular Permeability Test, histamine challenge; type: in vivo
# Protocol: as §1, with “See Tables 4 (ip administration of test compound) and 5 (po administration of test compound) for results obtained with the rat allergic mediator induced dermal vascular permeability test.” left out
# [6] = Table 4 (ip administration of test compound), 1 mg/kg
# [7] = Table 5 (po administration of test compound), 1 mg/kg
# [8] = Table 2, first group set, 50 mg/kg ip
# [9] = Table 2, first group set, 75 mg/kg ip
# [10] = Table 2, first group set, 100 mg/kg ip
# [11] = Table 2, second group set, 6.25 mg/kg ip
# [12] = Table 2, second group set, 12.5 mg/kg ip
# [13] = Table 2, second group set, 25 mg/kg ip
# [14] = Table 2, third group set, 2.5 mg/kg ip
# [15] = Table 2, third group set, 4 mg/kg ip
# [16] = Table 2, third group set, 6 mg/kg ip
# [17] = Table 2, first group set, 90 mg/kg po, N 17
# [18] = Table 2, second group set, 90 mg/kg po, N 20
# [19] = Table 2, third group set, 90 mg/kg po, N 29
compound,measurement,setting,value
"CN1CCC(=C2c3ccccc3C=Cc3ccccc32)CC1 [Cyproheptadine, cyproheptadine, reference compound]","% Inhibition, Ser",[1]; [6],74.8%
same,"Wheal Measurement, Ser",[1]; [6],2.8 mm
same,"% Inhibition, Ser",[1]; [7],95.1%
same,"Wheal Measurement, Ser",[1]; [7],0.5 mm
same,"% Inhibition, Bk",[2]; [6],60.6%
same,"Wheal Measurement, Bk",[2]; [6],4.3 mm
same,"% Inhibition, Bk",[2]; [7],86.8%
same,"Wheal Measurement, Bk",[2]; [7],1.2 mm
"COc1ccc(/C=C/c2ccc3c(=O)n(CCCN4CCCCC4)ncc3c2)cc1 [Example II, Trans-6-[2-(4-methoxyphenyl)ethenyl]-2-(3-piperidinopropyl)phthalazin-1(2H)-one hydrobromide]",pIC50,[3],5.47
"COc1ccc(/C=C/c2ccc3c(=O)n(CCN(C)C)ncc3c2)cc1 [Example III, Trans-6-[2-(4-methoxyphenyl)ethenyl]-2-[2-(dimethylamino)ethyl]-phthalazin-1(2H)-one hydrobromide]",pIC50,[3],4.78
"COc1ccc(/C=C/c2ccc3c(=O)n(CCN4CCOCC4)ncc3c2)cc1 [Example IV, Trans-6-[2-(4-methoxyphenyl)ethenyl]-2-(2-morpholinoethyl)phthalazin-1(2H)-one hydrobromide]",pIC50,[3],7.00
"COc1ccc(/C=C/c2ccc3c(=O)n(CCCCN(C)C)ncc3c2)cc1 [Example IX, Trans-6-[2-(4-methoxyphenyl)ethenyl]-2-[4-dimethylamino)butyl]phthalazin-1(2H)-one bromide]",pIC50,[3],5.00
"COc1ccc(CCc2ccc3c(=O)n(CCCN(C)C)ncc3c2)cc1 [Example VI, 6-[2-(4-methoxyphenyl)ethyl]-2-[3-(dimethylamino)propyl]phthalazin-1(2H)-on]",pIC50,[3],4.77
"COc1ccc(/C=C\c2ccc3c(=O)n(CCCN(C)C)ncc3c2)cc1 [Example X, Cis-6-[2-(4-methoxyphenyl)ethenyl]-2-[3-dimethylaminopropyl]phthalazin-1(2H)-one cyclohexylsulfamate]",pIC50,[3],4.98
"CSc1ccc(/C=C/c2ccc3c(=O)n(CCCN(C)C)ncc3c2)cc1 [Example XI, Trans-6-[2-[4-(methylthio)phenyl]ethenyl]-2-[3-(dimethylamino)propyl]phthalazin-1(2H)-one]",pIC50,[3],5.00
"Br.COc1ccc(/C=C/c2ccc3c(=O)n(CCCN(C)C)ncc3c2)cc1 [Example XII, Trans-6-[2-(4-methoxyphenyl)ethenyl]-2-[3-(dimethylamino)propyl]-phthalazin-1(2H)-one hydrobromide]","% Inhibition, Ser","[1]; Table 4, 12.5 mg/kg ip",26.1%
same,"Wheal Measurement, Ser","[1]; Table 4, 12.5 mg/kg ip",8.2 mm
same,"% Inhibition, Ser","[1]; Table 4, 25 mg/kg ip",51.4%
same,"Wheal Measurement, Ser","[1]; Table 4, 25 mg/kg ip",5.4 mm
same,"% Inhibition, Ser","[1]; Table 4, 50 mg/kg ip",68.5%
same,"Wheal Measurement, Ser","[1]; Table 4, 50 mg/kg ip",3.5 mm
same,"% Inhibition, Ser","[1]; Table 5, 12.5 mg/kg po",23.3%
same,"Wheal Measurement, Ser","[1]; Table 5, 12.5 mg/kg po",7.9 mm
same,"% Inhibition, Ser","[1]; Table 5, 25 mg/kg po",42.7%
same,"Wheal Measurement, Ser","[1]; Table 5, 25 mg/kg po",5.9 mm
same,"% Inhibition, Ser","[1]; Table 5, 50 mg/kg po",61.1%
same,"Wheal Measurement, Ser","[1]; Table 5, 50 mg/kg po",4.0 mm
same,% Inhibition,[4]; [8],56%
same,Paw Volume Mean ± S.E.,[4]; [8],1.7 ± 1.3
same,% Inhibition,[4]; [9],83%
same,Paw Volume Mean ± S.E.,[4]; [9],0.7 ± 0.8
same,% Inhibition,[4]; [10],91%
same,Paw Volume Mean ± S.E.,[4]; [10],0.4 ± 0.8
same,% Inhibition,[4]; [11],48%
same,Paw Volume Mean ± S.E.,[4]; [11],2.2 ± 1.9
same,% Inhibition,[4]; [12],52%
same,Paw Volume Mean ± S.E.,[4]; [12],2.1 ± 1.8
same,% Inhibition,[4]; [13],55%
same,Paw Volume Mean ± S.E.,[4]; [13],1.9 ± 1.4
same,% Inhibition,[4]; [14],+11%
same,Paw Volume Mean ± S.E.,[4]; [14],4.7 ± 2.8
same,% Inhibition,[4]; [15],+14%
same,Paw Volume Mean ± S.E.,[4]; [15],4.9 ± 2.3
same,% Inhibition,[4]; [16],12%
same,Paw Volume Mean ± S.E.,[4]; [16],3.7 ± 2.6
same,% Inhibition,"[4]; Table 3, 50 mg/kg po",14%
same,Paw Volume ± S.E.,"[4]; Table 3, 50 mg/kg po",3.10 ± .55 mm of Hg
same,% Inhibition,"[4]; Table 3, 75 mg/kg po",37%
same,Paw Volume ± S.E.,"[4]; Table 3, 75 mg/kg po",2.26 ± .32 mm of Hg
same,% Inhibition,"[4]; Table 3, 100 mg/kg po",54%
same,Paw Volume ± S.E.,"[4]; Table 3, 100 mg/kg po",1.65 ± .36 mm of Hg
same,pIC50,[3],4.87
same,"% Inhibition, Bk","[2]; Table 4, 12.5 mg/kg ip",32.1%
same,"Wheal Measurement, Bk","[2]; Table 4, 12.5 mg/kg ip",7.4 mm
same,"% Inhibition, Bk","[2]; Table 4, 25 mg/kg ip",47.7%
same,"Wheal Measurement, Bk","[2]; Table 4, 25 mg/kg ip",5.7 mm
same,"% Inhibition, Bk","[2]; Table 4, 50 mg/kg ip",74.3%
same,"Wheal Measurement, Bk","[2]; Table 4, 50 mg/kg ip",2.8 mm
same,"% Inhibition, Bk","[2]; Table 5, 12.5 mg/kg po",12.1%
same,"Wheal Measurement, Bk","[2]; Table 5, 12.5 mg/kg po",8.0 mm
same,"% Inhibition, Bk","[2]; Table 5, 25 mg/kg po",48.4%
same,"Wheal Measurement, Bk","[2]; Table 5, 25 mg/kg po",4.7 mm
same,"% Inhibition, Bk","[2]; Table 5, 50 mg/kg po",63.8%
same,"Wheal Measurement, Bk","[2]; Table 5, 50 mg/kg po",3.3 mm
same,"% Inhibition, His","[5]; Table 4, 12.5 mg/kg ip",26.8%
same,"Wheal Measurement, His","[5]; Table 4, 12.5 mg/kg ip",8.2 mm
same,"% Inhibition, His","[5]; Table 4, 25 mg/kg ip",50.0%
same,"Wheal Measurement, His","[5]; Table 4, 25 mg/kg ip",5.6 mm
same,"% Inhibition, His","[5]; Table 4, 50 mg/kg ip",75.9%
same,"Wheal Measurement, His","[5]; Table 4, 50 mg/kg ip",2.7 mm
same,"% Inhibition, His","[5]; Table 5, 12.5 mg/kg po",17%
same,"Wheal Measurement, His","[5]; Table 5, 12.5 mg/kg po",8.3 mm
same,"% Inhibition, His","[5]; Table 5, 25 mg/kg po",57%
same,"Wheal Measurement, His","[5]; Table 5, 25 mg/kg po",4.3 mm
same,"% Inhibition, His","[5]; Table 5, 50 mg/kg po",71%
same,"Wheal Measurement, His","[5]; Table 5, 50 mg/kg po",2.9 mm
"CN(C)CCn1ncc2cc(/C=C/c3ccc(O)cc3)ccc2c1=O [Example XIV, Trans-6-[2-(4-Hydroxyphenyl)ethenyl]-2-(2-dimethylaminoethyl)-1(2H)-phthalazinone hydrochloride]",pIC50,[3],4.50
"Cn1c(=O)c2[nH]cnc2n(C)c1=O [Theophylline, theophylline, reference compound]",% Inhibition,[4]; [17],76%
same,Paw Volume Mean ± S.E.,[4]; [17],0.9 ± 0.7
same,% Inhibition,[4]; [18],92%
same,Paw Volume Mean ± S.E.,[4]; [18],0.4 ± 0.6
same,% Inhibition,[4]; [19],87%
same,Paw Volume Mean ± S.E.,[4]; [19],0.5 ± 0.5
same,% Inhibition,"[4]; Table 3, 90 mg/kg po",82%
same,Paw Volume ± S.E.,"[4]; Table 3, 90 mg/kg po",0.65 ± .2 mm of Hg
